Laboratory results published in US11712055B2, “Stevia composition” (PURECIRCLE SDN. BHD., priority 2011, dated 2023).
Values belong to the compound of their own block, whether it stands above or below them.

Legend:
[1] = cited from earlier work; for times sweeter than sucrose: Tanaka 1987, Phillips 1989; for times sweeter than sucrose (sensory evaluations): Crammer and Ikan 1986
[2] = Water solubility; assay type: physicochemical; settings: in water at 25° C.
[3] = Chang and Cook 1983; cited from earlier work
[4] = Kinghorn 2002; cited from earlier work

Compound: C=C1C[C@@]23CC[C@H]4[C@@](C)(CCC[C@@]4(C)C(=O)O[C@@H]4O[C@H](CO)[C@@H](O)[C@H](O)[C@H]4O)[C@@H]2CC[C@]1(O[C@@H]1O[C@H](CO)[C@@H](O)[C@H](O)[C@H]1O[C@@H]1O[C@@H](C)[C@H](O)[C@@H](O)[C@H]1O)C3 [Dulcoside A]
times sweeter than sucrose [1]: 30 times

water solubility of obtained material [2]: about 0.1 % (w/v)
Compound: C=C1CC23CCC4C(C)(C(=O)[O-])CCCC4(C)C2CCC1(OC1OC(CO)C(O)C(OC2OC(CO)C(O)C(O)C2O)C1OC1OC(CO)C(O)C(O)C1O)C3.[K+] (stereo not shown) [Example 5, reb B potassium salt]

Compound: C=C1C[C@@]23CC[C@H]4[C@@](C)(CCC[C@@]4(C)C(=O)O[C@@H]4O[C@H](CO)[C@@H](O)[C@H](O)[C@H]4O)[C@@H]2CC[C@]1(O[C@@H]1O[C@H](CO)[C@@H](O)[C@H](O[C@@H]2O[C@H](CO)[C@@H](O)[C@H](O)[C@H]2O)[C@H]1O[C@@H]1O[C@H](CO)[C@@H](O)[C@H](O)[C@H]1O)C3 [Reb A, rebaudioside A]
stability in carbonated beverages [3]: heat and pH stability | times sweeter than sucrose (sensory evaluations) [1]: 350-450 times

Compound: C=C1C[C@@]23CC[C@H]4[C@@](C)(CCC[C@@]4(C)C(=O)O[C@@H]4O[C@H](CO)[C@@H](O)[C@H](O)[C@H]4O)[C@@H]2CC[C@]1(O[C@@H]1O[C@H](CO)[C@@H](O)[C@H](O)[C@H]1O[C@@H]1O[C@H](CO)[C@@H](O)[C@H](O)[C@H]1O)C3 [stevioside]
stability in carbonated beverages [3]: heat and pH stability | times sweeter than sucrose [1]: 110-270 times

Compound: Rebaudioside B [reb B]
times sweeter than sucrose (sensory evaluations) [1]: 300-350 times | water solubility (reported) [4]: about 0.1%

water solubility of obtained material [2]: about 0.1 % (w/v)
Compound: rebaudioside B [Example 3]

Compound: rebaudioside C
times sweeter than sucrose [1]: 40-60 times
